ChEMBL document CHEMBL1201862, “PubChem BioAssay data set” (2004)
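Cells were grown in 96-well plates and exposed to each compound for 48 hours at five concentrations; endpoints were interpolated linearly between bracketing concentrations, or set to the highest concentration if not reached. GI50 marks 50% less growth.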 Active and inactive are the calls of the source. Rule as the data show it: active = GI50 up to about 1.1 µM and inactive = higher.

Key:
Test in all cases: NCI-60 cell line screen, 48 h
NCI-H522 = test system: NCI-H522
UO-31 = test system: UO-31
ACHN = test system: ACHN
LOX IMVI = test system: LOX IMVI
MDA-MB-231 = test system: MDA-MB-231
SK-OV-3 = test system: SK-OV-3
NCI-H226 = test system: NCI-H226
Malme-3M = test system: Malme-3M
Hs-578T = test system: Hs-578T
K562 = test system: K562
T47D = test system: T47D
SN12C = test system: SN12C
HOP-62 = test system: HOP-62
SNB-19 = test system: SNB-19
KM12 = test system: KM12
SK-MEL-2 = test system: SK-MEL-2
SF-295 = test system: SF-295
HCC 2998 = test system: HCC 2998
RXF 393 = test system: RXF 393
MDA-N = test system: MDA-N

| SMILES | GI50 (NCI-H522) | GI50 (UO-31) | GI50 (ACHN) | GI50 (LOX IMVI) | GI50 (MDA-MB-231) | GI50 (SK-OV-3) | GI50 (NCI-H226) | GI50 (Malme-3M) | GI50 (Hs-578T) | GI50 (K562) | GI50 (T47D) | GI50 (SN12C) | GI50 (HOP-62) | GI50 (SNB-19) | GI50 (KM12) | GI50 (SK-MEL-2) | GI50 (SF-295) | GI50 (HCC 2998) | GI50 (RXF 393) | GI50 (MDA-N) |
| --- | --- | --- | --- | --- | --- | --- | --- | --- | --- | --- | --- | --- | --- | --- | --- | --- | --- | --- | --- | --- |
| O=C(O)/C(=C/C(=O)c1ccc(Cl)cc1)NNc1ccc([N+](=O)[O-])cc1[N+](=O)[O-] | 21.6 µM (inactive) | 20.8 µM (inactive) | 31.8 µM (inactive) | 75.3 µM (inactive) | 36.8 µM (inactive) | 35.6 µM (inactive) | 23.7 µM (inactive) | 30.5 µM (inactive) | 31.2 µM (inactive) | 36.9 µM (inactive) | 55.5 µM (inactive) | 41.8 µM (inactive) | 28.4 µM (inactive) | 43.4 µM (inactive) | 51.8 µM (inactive) | 31.7 µM (inactive) | 41.4 µM (inactive) | 59.8 µM (inactive) | – | – |
| CC12CCC(/C(=N/c3ccc([N+](=O)[O-])cc3)C1=O)C2(C)C (stereo not drawn) | – | 17.8 µM (inactive) | > 100 µM (inactive) | 14.7 µM (inactive) | 18.3 µM (inactive) | 28.4 µM (inactive) | > 100 µM (inactive) | 13.9 µM (inactive) | – | 19 µM (inactive) | 16.3 µM (inactive) | – | 25.2 µM (inactive) | 33.4 µM (inactive) | 19.9 µM (inactive) | 19 µM (inactive) | 27.1 µM (inactive) | 17.4 µM (inactive) | 13.9 µM (inactive) | – |
| C#CCOC(=O)C=[N+]=[N-] | – | > 10 µM (inactive) | > 10 µM (inactive) | > 10 µM (inactive) | > 10 µM (inactive) | > 10 µM (inactive) | > 10 µM (inactive) | > 10 µM (inactive) | – | > 10 µM (inactive) | > 10 µM (inactive) | > 10 µM (inactive) | > 10 µM (inactive) | > 10 µM (inactive) | > 10 µM (inactive) | > 10 µM (inactive) | > 10 µM (inactive) | – | > 10 µM (inactive) | > 10 µM (inactive) |
| O=C1OC(CS(=O)(=O)c2ccccc2)CC1O (stereo not drawn) | 53.1 µM (inactive) | 55.6 µM (inactive) | > 100 µM (inactive) | > 100 µM (inactive) | > 100 µM (inactive) | > 100 µM (inactive) | > 100 µM (inactive) | 22.6 µM (inactive) | – | > 100 µM (inactive) | – | > 100 µM (inactive) | > 100 µM (inactive) | > 100 µM (inactive) | > 100 µM (inactive) | > 100 µM (inactive) | > 100 µM (inactive) | > 100 µM (inactive) | > 100 µM (inactive) | > 100 µM (inactive) |
| CCOC1CCC2C(CCC(/C=C/c3ccc(O)c4ncccc34)N2C)C1 (stereo not drawn) | 1.99 µM (inactive) | 26.1 µM (inactive) | 32.7 µM (inactive) | – | – | – | 37.4 µM (inactive) | 31.6 µM (inactive) | 15.2 µM (inactive) | 4.6 µM (inactive) | 9.86 µM (inactive) | 4.78 µM (inactive) | 8.71 µM (inactive) | 16 µM (inactive) | 17.4 µM (inactive) | – | 24 µM (inactive) | 24.2 µM (inactive) | – | 38.5 µM (inactive) |
| CC(C)(C)OC(=O)N(CCCN)CCCCN | > 100 µM (inactive) | > 100 µM (inactive) | > 100 µM (inactive) | – | 0.0673 µM (active) | > 100 µM (inactive) | > 100 µM (inactive) | – | > 100 µM (inactive) | > 100 µM (inactive) | > 100 µM (inactive) | > 100 µM (inactive) | > 100 µM (inactive) | > 100 µM (inactive) | > 100 µM (inactive) | > 100 µM (inactive) | > 100 µM (inactive) | > 100 µM (inactive) | > 100 µM (inactive) | – |
| CCOc1cc2c(OCc3ccccc3)cc3c4cc(OC)c(OC)cc4c[n+](C)c3c2cc1OC | 0.391 µM (active) | 25.3 µM (inactive) | 19.4 µM (inactive) | 2.07 µM (inactive) | 2.29 µM (inactive) | 3.02 µM (inactive) | 1.5 µM (inactive) | 0.986 µM (active) | – | 1.18 µM (inactive) | 0.446 µM (active) | 0.471 µM (active) | 2.99 µM (inactive) | 0.385 µM (active) | 1.15 µM (inactive) | 1.22 µM (inactive) | 8.57 µM (inactive) | 1.57 µM (inactive) | 2.4 µM (inactive) | 0.857 µM (active) |
| CC(=O)O[C@H]1C(=O)[C@@]2(C)[C@H]([C@H](OC(=O)c3cccc([N+](=O)[O-])c3)[C@]3(O)C[C@H](OC(=O)[C@H](O)[C@@H](NC(=O)c4ccccc4)c4ccccc4)C(C)=C1C3(C)C)[C@]1(OC(C)=O)CO[C@@H]1C[C@@H]2O | 0.00362 µM (active) | 0.568 µM (active) | 0.151 µM (active) | 0.00558 µM (active) | 0.0122 µM (active) | 0.00703 µM (active) | 0.00257 µM (active) | – | 0.00322 µM (active) | 0.00482 µM (active) | – | 0.00695 µM (active) | 0.0107 µM (active) | 0.00652 µM (active) | 0.0047 µM (active) | 0.0126 µM (active) | 0.0155 µM (active) | 0.00762 µM (active) | 0.0133 µM (active) | 0.00285 µM (active) |
